These results are taken from patent publication US9133235B2, “Macrocyclic antagonists of the motilin receptor for treatment of gastrointestinal dysmotility disorders” (Ocera Therapeutics, Inc., priority 2006, dated 2015).

For one data set, the target named is human motilin receptor (Homo sapiens, UniProt O43193). Kind of data set: Aequorin functional assay (motilin receptor). To be noted: functional activity, antagonist testing vs motilin 0.5 nM (EC80). Set-up: host or cells: CHO-K1 cells co-expressing Gα16 and mitochondrially targeted Aequorin. It counts as cell-based.
Another data set addresses T1, CYP2B6 (Homo sapiens, UniProt P20813).
T1 construct: purchased BD Gentest, Becton-Dickinson (Supersomes); host or cells: insect cells (microsomes)
T1 sequence (P20813 1-491): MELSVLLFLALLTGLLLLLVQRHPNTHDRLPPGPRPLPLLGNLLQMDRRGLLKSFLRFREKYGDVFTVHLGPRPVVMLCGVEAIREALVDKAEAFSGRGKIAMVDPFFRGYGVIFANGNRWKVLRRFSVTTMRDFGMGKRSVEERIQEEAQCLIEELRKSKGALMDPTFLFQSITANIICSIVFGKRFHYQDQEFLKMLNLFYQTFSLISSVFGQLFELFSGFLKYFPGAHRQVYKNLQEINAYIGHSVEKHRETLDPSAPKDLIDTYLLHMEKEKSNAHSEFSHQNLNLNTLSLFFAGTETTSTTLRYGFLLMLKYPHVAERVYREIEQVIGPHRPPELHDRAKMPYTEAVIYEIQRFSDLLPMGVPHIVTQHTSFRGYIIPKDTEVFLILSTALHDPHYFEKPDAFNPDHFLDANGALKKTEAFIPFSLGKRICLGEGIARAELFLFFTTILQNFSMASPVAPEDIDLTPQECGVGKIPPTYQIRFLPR
The data set is described as follows: Cytochrome P450 inhibition, CYP2B6. The following applies: Supersomes; read-out: IC50 (μM) 2B6. The class given is in vitro ADME. An excerpt:
F. Assay for Cytochrome P450 Inhibition
Cytochrome P450 enzymes are implicated in the phase I metabolism of drugs. The majority of drug-drug interactions are metabolism-based and, moreover, these interactions typically involve inhibition of cytochrome P450s. Six CYP450 enzymes (CYP1A2, CYP2C8, CYP2C9, CYP2C19, CYP2D6 and CYP3A4) appear to be commonly responsible for the metabolism of most drugs and the associated drug-drug interactions. Assays to determine the binding of compounds of the invention to the various metabolically important isoforms of cytochrome P450 metabolizing enzymes are commercially available, for example NoAb BioDiscoveries (Mississaugua, ON, Canada) and Absorption Systems (Exton, Pa., USA). As well, a number of appropriate methods have been described or reviewed in the literature. (White, R. E. Ann. Rev. Pharmacol. Toxicol. 2000, 40, 133-157; Li, A. P. Drug. Disc. Today 2001, 6, 357-366; Turpeinen, M.; Korhonen, L. E. Tolonen, A.; et al. Eur. J. Pharm. Sci. 2006, 29, 130-138.)
The concentration of the inhibitor or test compound that inhibited metabolite formation by 50% (IC50) was calculated by non-linear regression analysis of the % inhibition vs. log concentration (M) curve.

Bounds are passed on as bounds.

Chain of human motilin receptor (O43193 whole entry): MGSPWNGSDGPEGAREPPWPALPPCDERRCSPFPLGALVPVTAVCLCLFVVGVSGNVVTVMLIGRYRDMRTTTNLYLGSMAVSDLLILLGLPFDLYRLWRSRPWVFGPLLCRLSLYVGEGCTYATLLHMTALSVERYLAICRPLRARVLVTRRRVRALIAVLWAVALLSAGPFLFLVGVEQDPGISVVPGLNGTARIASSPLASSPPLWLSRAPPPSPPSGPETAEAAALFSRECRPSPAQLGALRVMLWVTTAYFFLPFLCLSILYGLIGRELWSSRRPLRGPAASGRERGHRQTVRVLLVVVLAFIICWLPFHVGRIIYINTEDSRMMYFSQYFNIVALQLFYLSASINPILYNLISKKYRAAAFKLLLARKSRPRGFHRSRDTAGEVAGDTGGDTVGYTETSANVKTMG

In the case of `CC(C)[C@H]1NC(=O)[C@@H](Cc2cccc(C(F)(F)F)c2)NCCOc2ccccc2CCCNC(=O)[C@H](CN(C)C)NC1=O` [Compound 502], the IC50 at human motilin receptor was not above 0.01 µM.

In the case of `CCC[C@@H]1NC(=O)[C@@H](C(C)C)NC(=O)[C@@H](Cc2cccc(F)c2)N[C@@H](C)COc2ccccc2CCCNC1=O` [Compound 551], the IC50 on CYP2B6 is more than 100 µM.

Regarding `CCC[C@@H]1NC(=O)[C@@H](C(C)C)NC(=O)[C@@H](Cc2ccc(O)c(Cl)c2)N[C@@H](C)COc2ccccc2CCCNC1=O` [Compound 552], at human motilin receptor, the IC50 is not above 0.001 µM.

On to `CCC[C@@H]1NC(=O)[C@@H](C(C)C)NC(=O)[C@@H](Cc2ccc(O)c(C(C)(C)C)c2)NCCOc2ccccc2CCCNC1=O` [Compound 553], for which, at CYP2B6, the IC50 is more than 100 µM.
